From the supplement of paper PMC11061612

Experiments:
Test in all cases: Bliss excess, mean over the matrix (fraction); higher = more synergy
[1] = test system: BT-549 (Breast Carcinoma)
In short: (§1)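 Cell lines grown in DMEM/F12 or RPMI with 10% FBS were plated in 1536-well plates and held 24 hours at 37°C, 5% CO2 before 72 hours of exposure to two-drug dose matrices, with DMSO typically at 0.2%. CellTiter-Glo 2.0 luminescence gave viability, which was converted to inhibition. Vehicle wells were set to 0 and blank wells to 1. Combination Emax is the second-highest inhibition in the matrix, and Bliss excess is the observed combination effect minus the expected EA + EB − EA·EB, where EA and EB are the single-agent effects.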

[2] = test system: Caov-4 (Ovarian Carcinoma)
In short: as §1

[3] = test system: EFM-19 (Breast Carcinoma)
In short: as §1

[4] = test system: EW-24 (Ewing's Sarcoma)
In short: as §1

[5] = test system: EoL-1-cell (Acute Myeloid Leukemia)
In short: as §1

[6] = test system: HOP-62 (Lung Adenocarcinoma)
In short: as §1

[7] = test system: Hs-766T (Pancreatic Carcinoma)
In short: as §1

[8] = test system: KARPAS-299 (T-Cell Non-Hodgkin's Lymphoma)
In short: as §1

[9] = test system: KMOE-2 (Acute Myeloid Leukemia)
In short: as §1

[10] = test system: KYSE-450 (Esophageal Squamous Cell Carcinoma)
In short: as §1

[11] = test system: LU-65 (Non-Small Cell Lung Carcinoma)
In short: as §1

[12] = test system: MIA-PaCa-2 (Pancreatic Carcinoma)
In short: as §1

[13] = test system: MLMA (Other Blood Carcinomas)
In short: as §1

[14] = test system: NCI-H727 (Other Solid Carcinomas)
In short: as §1

[15] = test system: NUGC-3 (Gastric Carcinoma)
In short: as §1

[16] = test system: OSC-20 (Oral Cavity Carcinoma)
In short: as §1

[17] = test system: PWR-1E (Non-Cancerous)
In short: as §1

[18] = test system: TGW (Neuroblastoma)
In short: as §1

[19] = test system: VA-ES-BJ (Other Solid Carcinomas)
In short: as §1

[20] = test system: YH-13 (Glioblastoma)
In short: as §1

| Structure (SMILES) | Bliss excess [1] | Bliss excess [2] | Bliss excess [3] | Bliss excess [4] | Bliss excess [5] | Bliss excess [6] | Bliss excess [7] | Bliss excess [8] | Bliss excess [9] | Bliss excess [10] | Bliss excess [11] | Bliss excess [12] | Bliss excess [13] | Bliss excess [14] | Bliss excess [15] | Bliss excess [16] | Bliss excess [17] | Bliss excess [18] | Bliss excess [19] | Bliss excess [20] |
| --- | --- | --- | --- | --- | --- | --- | --- | --- | --- | --- | --- | --- | --- | --- | --- | --- | --- | --- | --- | --- |
| COc1cccc(OCCCN)c1-c1cc(Nc2cnc(C#N)cn2)n[nH]1 [Prexasertib] + CN(C)CCCOc1ccc(-c2ccc3ncc4c(c3c2)n(C2CCOCC2)c(=O)n4C)cn1 [AZD0156] (first compound max 1 µM, 7x7, partner max 1 µM) | -0.0094 | 0.0056 | -0.0701 | -0.0082 | -0.0145 | -0.0042 | -0.0062 | 0.0074 | -0.0363 | -0.0713 | -0.023 | -0.0391 | -0.0349 | -0.0646 | 0.0083 | -0.0111 | -0.0276 | -0.0253 | -0.0395 | -0.0203 |
| COc1cccc(OCCCN)c1-c1cc(Nc2cnc(C#N)cn2)n[nH]1 [Prexasertib] + C[C@@H]1COCCN1C2=NC(=NC(=C2)C3(CC3)[S@](=N)(=O)C)C4=C5C=CNC5=NC=C4 [AZD6738] (first compound max 1 µM, 7x7, partner max 10 µM) | 0.0054 | -0.0123 | -0.0296 | -0.0522 | -0.0109 | 0.0375 | 0.0101 | -0.0184 | -0.0043 | 0.0135 | -0.0173 | -0.105 | -0.0514 | -0.0047 | -0.019 | -0.0583 | 0.0243 | -0.019 | -0.0114 | -0.018 |
| COc1cccc(OCCCN)c1-c1cc(Nc2cnc(C#N)cn2)n[nH]1 [Prexasertib] + Cc1cc2ncnn2cc1Nc1ncc2c(n1)n(C1CCOCC1)c(=O)n2C [AZD7648] (first compound max 1 µM, 7x7, partner max 10 µM) | -0.0341 | -0.0361 | -0.0676 | -0.0019 | -0.0003 | -0.0063 | 0.0183 | -0.0226 | 0.0172 | -0.0017 | -0.0099 | -0.0172 | -0.0204 | -0.022 | -0.0129 | 0.0115 | -0.0243 | -0.0512 | 0.013 | -0.0146 |
| COc1cccc(OCCCN)c1-c1cc(Nc2cnc(C#N)cn2)n[nH]1 [Prexasertib] + O=C(c1cc(Cc2n[nH]c(=O)c3ccccc23)ccc1F)N1CCN(C(=O)C2CC2)CC1 [Olaparib] (first compound max 1 µM, 7x7, partner max 10 µM) | 0.0195 | -0.0542 | -0.0094 | -0.0292 | -0.0146 | -0.0319 | -0.032 | -0.0318 | 0.0279 | -0.025 | -0.0678 | -0.0781 | -0.0442 | -0.259 | -0.143 | -0.013 | -0.211 | -0.0665 | -0.0337 | -0.0598 |
| CCc1c2c(nc3ccc(O)cc13)-c1cc3c(c(=O)n1C2)COC(=O)[C@]3(O)CC [SN-38] + CN(C)CCCOc1ccc(-c2ccc3ncc4c(c3c2)n(C2CCOCC2)c(=O)n4C)cn1 [AZD0156] (first compound max 0.3 µM, 7x7, partner max 1 µM) | -0.0888 | 0.0268 | -0.064 | -0.0189 | 0.098 | 0.0182 | -0.0147 | 0.071 | -0.0089 | 0.0937 | -0.0148 | 0.0279 | -0.0501 | -0.006 | 0.0085 | -0.0083 | 0.0948 | 0.0047 | -0.0165 | -0.0036 |
| Cn1cnc2c(F)c(Nc3ccc(Br)cc3Cl)c(C(=O)NOCCO)cc21 [Selumetinib] + C=CCn1c(=O)c2cnc(Nc3ccc(N4CCN(C)CC4)cc3)nc2n1-c1cccc(C(C)(C)O)n1 [AZD1775] (first compound max 10 µM, partner max 1 µM) | -0.0578 | -0.0097 | -0.0121 | -0.0025 | -0.053 | -0.0468 | -0.0559 | 0.0463 | 0.0111 | -0.037 | 0.0065 | 0.0552 | -0.0257 | -0.0891 | -0.0757 | -0.019 | -0.0663 | -0.0219 | -0.112 | -0.0489 |
| Cn1cnc2c(F)c(Nc3ccc(Br)cc3Cl)c(C(=O)NOCCO)cc21 [Selumetinib] + CC(C)n1c(=O)n(C)c2cnc3cc(F)c(-c4ccc(OCCCN5CCCCC5)nc4)cc3c21 [AZD1390] (first compound max 10 µM, 7x7, partner max 0.3 µM) | -0.0438 | -0.0382 | -0.0264 | -0.0594 | 0.0004 | -0.0451 | -0.0215 | 0.0285 | 0.0296 | -0.0416 | 0.0027 | -0.0287 | -0.0186 | -0.0229 | -0.0347 | -0.0269 | -0.0467 | -0.0393 | -0.0471 | -0.0342 |
| Cn1cnc2c(F)c(Nc3ccc(Br)cc3Cl)c(C(=O)NOCCO)cc21 [Selumetinib] + CCN(CCO)CCCOc1ccc2c(Nc3cc(CC(=O)Nc4cccc(F)c4)[nH]n3)ncnc2c1 [AZD2811] (first compound max 10 µM, 7x7, partner max 1 µM) | -0.0216 | -0.0643 | 0.0054 | -0.014 | 0.0206 | -0.0772 | -0.0659 | 0.0227 | -0.0124 | -0.0117 | -0.0082 | 0.0585 | -0.026 | -0.0389 | 0.0179 | -0.0115 | -0.0175 | -0.026 | -0.0263 | -0.14 |
| Cn1cnc2c(F)c(Nc3ccc(Br)cc3Cl)c(C(=O)NOCCO)cc21 [Selumetinib] + C[C@@H]1COCCN1C2=NC(=NC(=C2)C3(CC3)[S@](=N)(=O)C)C4=C5C=CNC5=NC=C4 [AZD6738] (first compound max 10 µM, 7x7, partner max 10 µM) | -0.0936 | -0.0221 | -0.0188 | -0.0785 | 0.0058 | -0.0175 | -0.0794 | -0.013 | 0.0544 | 0.0046 | -0.0244 | 0.0499 | -0.106 | 0.0201 | 0.0428 | -0.0613 | -0.0381 | -0.0288 | -0.0714 | -0.0485 |
| CC(=O)Nc1cccc(-n2c(=O)n(C3CC3)c(=O)c3c(Nc4ccc(I)cc4F)n(C)c(=O)c(C)c32)c1 [Trametinib] + Cc1nc(-c2cn3c(n2)-c2ccc(-c4cnn(C(C)(C)C(N)=O)c4)cc2OCC3)n(C(C)C)n1 [Taselisib] (first compound max 1 µM, 7x7, partner max 10 µM) | 0.0203 | 0.0567 | -0.0544 | 0.0141 | 0.232 | 0.0978 | 0.0113 | 0.25 | 0.066 | 0.11 | 0.0994 | 0.148 | -0.036 | -0.0129 | 0.104 | 0.0925 | 0.121 | 0.085 | -0.0328 | 0.0704 |
| CC1(C)CCC(CN2CCN(c3ccc(C(=O)NS(=O)(=O)c4ccc(NCC5CCOCC5)c([N+](=O)[O-])c4)c(Oc4cnc5[nH]ccc5c4)c3)CC2)=C(c2ccc(Cl)cc2)C1 [Venetoclax] + C1CN(CCC1(C(=O)N[C@@H](CCO)C2=CC=C(C=C2)Cl)N)C3=NC=NC4=C3C=CN4 [Capivasertib] (first compound max 1 µM, 7x7, partner max 3 µM) | -0.0385 | -0.0458 | -0.0925 | -0.0113 | 0.0239 | -0.0565 | -0.0635 | -0.0004 | 0.0121 | -0.0296 | -0.0377 | -0.0384 | -0.0425 | -0.0539 | -0.0102 | -0.0354 | -0.0161 | -0.0211 | -0.0357 | -0.039 |
| CC1(C)CCC(CN2CCN(c3ccc(C(=O)NS(=O)(=O)c4ccc(NCC5CCOCC5)c([N+](=O)[O-])c4)c(Oc4cnc5[nH]ccc5c4)c3)CC2)=C(c2ccc(Cl)cc2)C1 [Venetoclax] + C=CCn1c(=O)c2cnc(Nc3ccc(N4CCN(C)CC4)cc3)nc2n1-c1cccc(C(C)(C)O)n1 [AZD1775] (first compound max 1 µM, partner max 1 µM) | -0.0152 | 0.0534 | -0.0335 | 0.0351 | 0.0156 | -0.0635 | -0.0049 | 0.008 | -0.0226 | -0.0642 | 0.041 | 0.0944 | 0.0421 | 0.0475 | -0.0656 | -0.0522 | -0.0347 | -0.0261 | -0.0373 | -0.0085 |
| CC1(C)CCC(CN2CCN(c3ccc(C(=O)NS(=O)(=O)c4ccc(NCC5CCOCC5)c([N+](=O)[O-])c4)c(Oc4cnc5[nH]ccc5c4)c3)CC2)=C(c2ccc(Cl)cc2)C1 [Venetoclax] + CCN(CCO)CCCOc1ccc2c(Nc3cc(CC(=O)Nc4cccc(F)c4)[nH]n3)ncnc2c1 [AZD2811] (first compound max 1 µM, 7x7, partner max 1 µM) | -0.0111 | -0.0091 | 0.0005 | 0.0194 | 0.0108 | -0.0222 | -0.0372 | 0.0871 | -0.0506 | -0.0215 | -0.0556 | -0.0362 | -0.0633 | -0.0795 | 0.0083 | -0.0372 | -0.0234 | -0.011 | 0.0108 | -0.0428 |
| CC1(C)CCC(CN2CCN(c3ccc(C(=O)NS(=O)(=O)c4ccc(NCC5CCOCC5)c([N+](=O)[O-])c4)c(Oc4cnc5[nH]ccc5c4)c3)CC2)=C(c2ccc(Cl)cc2)C1 [Venetoclax] + CN(C)CCCOc1ccc(-c2ccc3ncc4c(c3c2)n(C2CCOCC2)c(=O)n4C)cn1 [AZD0156] (first compound max 1 µM, 7x7, partner max 1 µM) | -0.0049 | -0.0256 | -0.0184 | 0.0147 | 0.0038 | -0.0677 | -0.0841 | 0.0353 | -0.0291 | -0.0795 | 0.0173 | 0.0184 | 0.0062 | -0.0499 | -0.0035 | -0.0304 | 0.0005 | -0.0245 | -0.0204 | -0.0972 |
